For data set [1] the following is noted: cited from earlier work.
The conditions of data set [2]: several combinations of vehicles and enhancers; cited from earlier work.
The conditions of data set [3]: human.
The conditions of data set [4]: humans; cited from earlier work.

The text below walks through data of patent US5096715A, “Method and means for treating alcoholism by extinguishing the alcohol-drinking response using a transdermally administered opiate antagonist” (Alko Ltd., priority 1989, dated 1992).

“Also recorded” adds a separate entry of the source.

`C=CCN1CC[C@]23c4c5ccc(O)c4O[C@H]2C(=O)CC[C@@]3(O)[C@H]1C5` [naloxone]: the “half-life in the body” value in data set [1] was “desirably short half-life”. Besides, the rates for naloxone entry in data set [2] is given as “over 300 μg/cm^2 /hr”. In data set [3] (4-7 hrs later, transdermal), the “naloxone present to block alcohol reinforcement at end of session” value is given as “Sufficient quantities of naloxone to block alcohol reinforcement would still be present; also recorded: Sufficient amounts of naloxone to block alcohol reinforcement would still be present”. Moreover, the systemic delivery rate entry in data set [3] (skin area of 900-1000 cm^2) is listed as “about 5 mg/min”. Further, the “time to deliver the entire 30 mg systemically” value in data set [3] (including lag time of 18 min) is recorded as “half an hour”.

For the molecule `O=C1CC[C@@]2(O)[C@H]3Cc4ccc(O)c5c4[C@@]2(CCN3CC2CC2)[C@H]1O5` [naltrexone], in data set [4], the severe side-effects entry is given as “free of severe side-effects”.
